Consider one compound from paper PMC11040934, “PI3Kγδ inhibition suppresses key disease features in a rat model of asthma” (Respiratory Research, 2024).

The test system of one data set is PI3K pathway (pAkt). Briefly: Rat model of allergic asthma: lung tissue pAkt (T308), target engagement. The class given is in vivo, Brown Norway rat. Conditions: i.t. 1 hr before OVA challenge; AZD8154 0.02, 0.1, 0.3 mg/kg, budesonide 3 mg/kg; lung 2 hrs after challenge. The procedure: Male, adult, Brown Norway rats were obtained from Charles River Germany at a body weight range of 250-300 g. Animals were housed in temperature controlled individually ventilated cages in groups of 4 with food and water provided ad libitum. Animals underwent acclimatisation for at least 1 week prior to experimentation. Experiments were performed in accordance with the UK Home Office guidelines for animal welfare based on the Animals (Scientific Procedures) Act of 1986 and the ARRIVE guidelines (Fig. E2).
Initially a time course study was performed, followed by a characterisation study with compound & clinical comparator. […]
5 μL of supernatant (1:50 dilution) was taken for Bradford Assay which was run according to manufacturers’ instructions (BioRad, USA). […] Absorbance was measured using a spectrophotometer and total protein values interpolated to standard curve (595 nm; Spectromax, UK).
10 μg of protein from lung tissue extract were utilized in pAkt (T308); pSTAT3, pSTAT4 & STAT5a, b (Phospho-STAT Panel kit) MSD Assay plates (Meso Scale Delivery, USA) and run according to manufacturers’ instructions. Arbitrary electrochemiluminescence signals were read, the blank subtracted and values determined in each plate using a MSD S-Plex plate reader (Meso Scale Delivery, USA).

Data set [1] can be described thus: Rat plasma protein binding, blood to plasma ratio, unbound fraction in whole blood. The class given is in vitro ADME. Conditions: for fraction unbound: rat. The procedure: Next, cells were stained with Fc block (550,273, BD bioscience, 1:100; 20 mins, RT), CD45R-B220-PeCy7 (HIS24) (25–0460-82, eBioscience, 1:100), CD43-PE (W3/13) (202,812, Biolegend, 1:100), HIS48-FITC (11–0570-82, eBioscience, 1:100), CD11b-APC (562,102, BD Bioscience, 1:100). Cells were lysed and fixed with BD FACS lysing solution (349,202, BD Biosciences; 45 mins, RT) before FACS acquisition (BD LSRFortessa™). Data were analysed using FlowJo 9.9 software (TreeStar). FACS gating strategy: lymphocytes (FSC-A vs SSC-A), doublets exclusion (FSC-W vs FSC-H), neutrophil identification B220-, HIS48hi, CD43hi, SSC-Ahi, geom. MFI for CD11b on neutrophils. IC50 values were determined in Graph Pad through a nonlinear fit on log transform data: log inhibitor vs response, variable slope, 4 parameters. Fraction unbound in diluted whole blood is calculated using the following equation: fu^′=DF·fub/1+DF-1·fub where fu’ is the fraction unbound in diluted whole blood; fub is the fraction unbound in undiluted whole blood; DF is the dilution factor. Fraction unbound in 100% whole blood (fub) is calculated as fup/BP, where fup is the experimentally determined fraction unbound in undiluted plasma and BP is the experimentally determined blood to plasma partition ratio of drug Table 1.

Data set [2] can be described thus: Human plasma protein binding and unbound fraction in assay media. Format: in vitro ADME. As for the experimental part:
PI3K δ assay: single cell suspension was obtained from the spleen of male Sprague Dawley rat; cells were cultured in RPMI containing heat-inactivated 10% FBS, pre-treated (1 hr., 37 °C, 5% CO2) with vehicle DMSO or PI3K inhibitors, followed by stimulation with AffiniPure F(ab’)2 Fragment Goat Anti-Rat IgM, μ chain specific, Jackson Immunoresearch (112–006-075) at 5 μg/mL (EC80 determined in house; 20–22 hrs). Then, cells were washed with FACS buffer (2% FBS, […]) and stained (15 mins, 4 °C) with Fc block (1:100, 550,273, BD bioscience), LIVE/DEAD Fixable Aqua Dead Cell Stain Kit (L34957, Invitrogen, 1:300), CD45R (B220)-PeCy7 (HIS24) (25–0460-82, eBioscience, 1:100), CD3-AF647 (IF4) (201,408, Biolegend, 1:100), CD86-FITC (24F) (200,305, Biolegend, 1:50). Cells were acquired on the Flow Cytometer (BD LSRFortessa™) and analysed using FlowJo 9.9 software (TreeStar). FACS gating strategy: lymphocytes (FSC-A vs SSC-A), doublets exclusion (FSC-W vs FSC-H), live cells (Aqua-530-), B cell identification CD3- B220 + % of positive B cells for CD86. IC50 values were determined in Graph Pad through a nonlinear fit on log transform data: log inhibitor vs response, variable slope, 4 parameters. Fraction unbound in in vitro assay is calculated using the following equation: fu^′=DF·fup/1+DF-1·fup where fu’ is the fraction unbound in assay media; fup is the experimentally determined fraction unbound in undiluted human plasma; DF is the dilution factor (fold difference between protein concentration in human plasma and assay media, using an albumin concentration of 600 μM (40 g/L) for undiluted plasma) Table 2.

Regarding `Cc1nc(Nc2cccc(N3CCCC3=O)n2)sc1-c1cc2c(c(S(C)(=O)=O)c1)C(=O)N([C@@H](C)C1CC1)C2` [AZD8154], the “lung tissue pAkt levels” value with PI3K pathway (pAkt) was “dose related suppression”. Also, in data set [1] (blood to plasma partition ratio), the “Rat B/P ratio” value was determined as 0.82. The Rat fub in data set [1] (fraction unbound in 100% whole blood, fup/BP) was 0.018. Besides, the fraction unbound in data set [1] (diluted whole blood (PI3K γ assay), fraction unbound in diluted whole blood, DF 1.05 (γ assay), read-out: fu’) stood at 0.0192; in data set [1] (plasma, rat plasma, fraction unbound, read-out: Rat ppb (fu, %)), 0.015; in data set [1] (plasma, undiluted rat plasma, fraction, read-out: Rat plasma fu) it was 0.015; in data set [2] (human plasma, fraction unbound, read-out: Human ppb (fu, %)) it was 0.0063; in data set [2] (human, assay media (PI3K δ assay), fraction unbound in assay media (δ assay, RPMI 10% FBS), read-out: Fu’), 0.06.
